# According to ChEMBL document CHEMBL1128613, “A water soluble benzazepine cholecystokinin-B receptor antagonist” (Bioorg Med Chem Lett, 1995):
# Target: T1, Cholecystokinin receptor type A (Cavia porcellus, UniProt Q63931)
# T1 sequence (Q63931 whole entry): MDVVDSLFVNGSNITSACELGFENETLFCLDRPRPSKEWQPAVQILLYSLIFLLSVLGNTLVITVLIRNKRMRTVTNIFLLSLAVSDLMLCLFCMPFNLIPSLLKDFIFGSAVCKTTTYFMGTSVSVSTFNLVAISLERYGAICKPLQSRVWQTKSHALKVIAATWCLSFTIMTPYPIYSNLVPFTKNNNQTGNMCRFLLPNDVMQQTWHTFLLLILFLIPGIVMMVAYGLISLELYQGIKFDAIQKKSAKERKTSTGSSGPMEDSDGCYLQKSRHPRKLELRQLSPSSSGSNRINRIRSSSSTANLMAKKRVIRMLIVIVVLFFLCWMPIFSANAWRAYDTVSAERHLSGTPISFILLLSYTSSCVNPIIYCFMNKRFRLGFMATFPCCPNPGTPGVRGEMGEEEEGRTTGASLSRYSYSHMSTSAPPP
# Assay: Binding activity towards cholecystokinin-A (CCK-A) receptor in guinea pig pancreas
row,IC50,Structure (SMILES)
1,0.25 µM,Cc1ccc2c(c1)N(CC(=O)NC(C)(C)C)C(=O)[C@H](NC(=O)Nc1cccc(-c3nnn[nH]3)c1)C[C@@H]2C(C)C
2,0.6 µM,Cc1ccc([C@H]2C[C@@H](NC(=O)Nc3cccc(-c4nn[nH]n4)c3)C(=O)N(CC(=O)NC(C)(C)C)c3cc(C)ccc32)cc1
3,1.1 µM,CCS(=O)(=O)NC(=O)c1cccc(NC(=O)N[C@@H]2C[C@H](c3ccccc3)c3ccc(C)cc3N(CC(=O)NC(C)(C)C)C2=O)c1
4,0.49 µM,Cc1ccc2c(c1)N(CC(=O)NC(C)(C)C)C(=O)[C@H](NC(=O)Nc1cccc(-c3nnn[nH]3)c1)C[C@@H]2C1CCCCC1
5,0.52 µM,Cc1ccc2c(c1)N(CC(=O)NC(C)(C)C)C(=O)[C@H](NC(=O)Nc1cccc(C(=O)NS(C)(=O)=O)c1)C[C@@H]2C1CCCCC1
6,0.31 µM,COC(=O)c1cccc(NC(=O)N[C@@H]2C[C@H](c3ccccc3)c3ccc(C)cc3N(CC(=O)NC(C)(C)C)C2=O)c1
7,0.034 µM,Cc1ccc2c(c1)N(CC(=O)NC(C)(C)C)C(=O)[C@H](NC(=O)Nc1cccc(-c3nnn[nH]3)c1)C[C@@H]2Cc1ccccc1
8,4.2 µM,Cc1ccc2c(c1)N(CC(=O)NC(C)(C)C)C(=O)[C@H](NC(=O)Nc1cccc(C(=O)O)c1)C[C@@H]2c1ccccc1
9,0.62 µM,Cc1ccc2c(c1)N(CC(=O)NC(C)(C)C)C(=O)[C@H](NC(=O)Nc1cccc(-c3nnn[nH]3)c1)C[C@@H]2c1ccccc1
10,0.73 µM,Cc1ccc2c(c1)N(CC(=O)NC(C)(C)C)C(=O)[C@H](NC(=O)Nc1cccc(C(=O)NS(=O)(=O)Cc3ccccc3)c1)C[C@@H]2c1ccccc1
11,0.32 µM,Cc1ccc2c(c1)N(CC(=O)NC(C)(C)C)C(=O)[C@H](NC(=O)Nc1cccc(C(=O)NS(=O)(=O)C(F)(F)F)c1)C[C@@H]2c1ccccc1
12,0.97 µM,Cc1ccc2c(c1)N(CC(=O)NC(C)(C)C)C(=O)[C@H](NC(=O)Nc1cccc(C(=O)NS(C)(=O)=O)c1)C[C@@H]2c1ccccc1
13,0.37 µM,COC(=O)c1cccc(NC(=O)N[C@@H]2C[C@H](C3CCCCC3)c3ccc(C)cc3N(CC(=O)NC(C)(C)C)C2=O)c1
14,1.3 µM,Cc1ccc2c(c1)N(CC(=O)NC(C)(C)C)C(=O)[C@H](NC(=O)Nc1cccc(C(=O)NS(=O)(=O)c3ccccc3C)c1)C[C@@H]2c1ccccc1
15,1 µM,Cc1ccc2c(c1)N(CC(=O)NC(C)(C)C)C(=O)[C@H](NC(=O)Nc1cccc(C(=O)Nc3nnn[nH]3)c1)C[C@@H]2c1ccccc1
16,0.22 µM,Cc1ccc2c(c1)N(CC(=O)NC(C)(C)C)C(=O)[C@H](NC(=O)Nc1cccc(-c3nnn[nH]3)c1)C[C@@H]2CC1CCCCC1
17,1.3 µM,Cc1ccc2c(c1)N(CC(=O)NC(C)(C)C)C(=O)[C@H](NC(=O)Nc1cccc(C(=O)NS(=O)(=O)c3ccccc3)c1)C[C@@H]2c1ccccc1
18,1.4 µM,Cc1ccc2c(c1)N(CC(=O)NC(C)(C)C)C(=O)[C@H](NC(=O)Nc1cccc(C(=O)O)c1)C[C@@H]2C1CCCCC1 (stereo in doubt; 2)
19,2.3 µM,Cc1ccc2c(c1)N(CC(=O)NC(C)(C)C)C(=O)[C@H](NC(=O)Nc1cccc(C(=O)O)c1)C[C@@H]2C1CCCCC1 (stereo in doubt; 5k)
